Test results: patent US7786155B2, “Organic compounds” (Novartis AG, priority 2007, dated 2010)

Molecular target: T1, recombinant human NPY Y2 receptors (Homo sapiens, UniProt P49146)
T1 construct: expressed in transfected cells; host or cells: CHO-C4 cells (membrane preparation)
T1 sequence (P49146 1-381): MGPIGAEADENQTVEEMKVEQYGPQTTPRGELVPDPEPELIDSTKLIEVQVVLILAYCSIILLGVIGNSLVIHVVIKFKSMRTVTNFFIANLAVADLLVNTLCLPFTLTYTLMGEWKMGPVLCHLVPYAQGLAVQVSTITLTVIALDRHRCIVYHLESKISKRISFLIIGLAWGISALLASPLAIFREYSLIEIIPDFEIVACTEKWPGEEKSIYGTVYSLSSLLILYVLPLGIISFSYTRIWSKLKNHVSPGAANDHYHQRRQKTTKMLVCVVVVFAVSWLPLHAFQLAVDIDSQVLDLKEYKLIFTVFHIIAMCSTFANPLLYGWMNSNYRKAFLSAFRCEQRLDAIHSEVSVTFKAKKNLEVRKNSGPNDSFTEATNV
Experiment: Scintillation proximity [35S]GTPγS binding assay (inhibition of 0.5 nM NPY-stimulated [35S]GTPγS binding)
Format: biochemical
Conditions: 10 μM compound, membranes from CHO-C4 cells expressing recombinant human NPY Y2 receptors
Procedure: Preparation of Membranes: CHO-C4 cells expressing recombinant human NPY Y2 receptors were used to prepare membranes for the GTPγS assay. Cells were grown to 80-95% confluency on 15-cm (225 cm^2) tissue culture plates. After aspiration of the culture medium, cells were washed twice with 18 ml ice-cold phosphate-buffered saline (PBS), scraped off and suspended in 3 ml ice-cold PBS in pre-cooled centrifuge tubes. The dishes were rinsed with 2 ml ice-old PBS per dish and the washings were combined with the PBS cell suspension from above. Cells pooled from 5-7 dishes were centrifuged for 5 min at 10,000 rpm (12,000 g) in a Sorvall RC5B centrifuge using an SS34 rotor at […]. The cell pellet was resuspended in 5 ml ice-cold buffer (20 mM HEPES, 10 mM EDTA; pH 7.4) by vortexing (2-5 sec), homogenized using a Polytron (step 4 for 20-30 sec), and ice-cold buffer added to 25 ml. The suspension was centrifuged again for 20 min at 18,000 rpm (39,000 g) at 4° C. and the pellet resuspended in 5 ml ice-cold buffer (20 mM HEPES, 0.1 mM EDTA; pH 7.4) by vortexing (2-5 sec), homogenized with a Polytron (step 4 for 10 sec), and ice-cold buffer added to 25 ml. The suspension was centrifuged a third time for 20 min at 18,000 rpm (39,000 g) at 4° C. The pellet was resuspend in 1 ml ice-cold buffer (20 mM Hepes, 0.1 mM EDTA; pH 7.4) by vortexing (5-8 sec). Two to five resuspended pellets were combined and homogenized using a Polytron (step 4 for 15-25 sec). A small aliquot (20-50 μl) was removed for protein determination by the Coomassie Plus Protein Assay Reagent (Pierce) using BSA as standard. The membrane suspension was aliquoted in precooled (on dry ice) Eppendorf tubes (0.25-1 ml/tube affording approximately 0.5-2 mg of membrane protein/tube). The pellets were frozen and stored at −80° C.
Scintillation proximity [^35S]GTPγS binding assay: Frozen membranes from CHO-C4 cells expressing recombinant human NPY Y2 receptors (2 mg for four 96-well plates) were thawed on ice. Thawed membranes were pipetted into 10 ml of assay buffer (20 mM HEPES, 10 mM MgCl2, 100 mM NaCl, pH 7.4) and homogenized briefly using a Polytron. The final assay mixture was prepared in 96-well microtiter plates (Isoplate Wallac, Perkin Elmer). The composition of the assay mixtures in a final volume of 250 μl per well was as follows: 20 mM HEPES, 10 mM MgCl2, 100 mM NaCl, pH 7.4, 30 μM GDP, 1 mg/ml BSA (added fresh), 5 μg membrane protein, 1.5 mg Wheatgerm agglutinin SPA beads (Amersham), 0.45 nM [^35S]GTPγS (Amersham, SJ1308, 1000 Ci/mmol, stabilized solution), and the test compounds (agonists and/or antagonists) at the appropriate concentrations. The samples were incubated at room temperature for 90 min by shaking, after which the SPA beads were sedimented by centrifugation in an Eppendorf 5804 centrifuge at 2700 rpm for 10 min at room temperature. After 60 min the plates were counted in a TopCount (Canberra). Basal [^35S]GTPγS binding was measured in the absence of agonist (NPY). Non-specific binding was measured in the presence of excess (10 μM) unlabelled GTPγS (Sigma). Nonspecific binding never exceeded 10% of basal binding and was thus not subtracted from the experimental data. Antagonists were tested for the inhibition of 0.5 nM NPY-stimulated [^35S]GTPγS binding. Antagonist inhibition curves were analyzed by non-linear regression using GraphPad Prism software (Version 4.0, GraphPad Software Inc., CA, USA).
Antagonistic activity of compounds of the present invention was examined by the Scintillation proximity [^35S]GTPγS binding assay as described above (inhibition of 0.5 nM NPY-stimulated [^35S]GTPγS binding). The table below represents percentages of inhibition at a concentration of 10 μM.

Structure (SMILES)	[%] inhibiton at 10 μM
CCCC1(c2ccc(F)cc2)N=C(C)N(CC(=O)c2ccc(NC(=O)C3CCOC3)cc2F)C1=O (stereo not shown) [Compound 14, Tetrahydro-furan-3-carboxylic acid (34-fluoro-4-{2-[4-(4-fluoro-phenyl)-2-methyl-5-oxo-propyl-4,5-dihydro-imidazol-1-yl]-acetyl}-phenyl)-amide]	39%
COc1ccccc1CC(=O)Nc1ccc(C(=O)CN2C(=O)C(c3ccccc3)(c3ccccc3)N=C2C)cc1 [Compound 30, 2-(2-Methoxy-phenyl)-N-{4-[2-(2-methyl-5-oxo-4,4-phenyl-4,5-dihydro-imidazol-1yl)-acetyl]-phenyl}-acetamide]	78%

Same assay, conditions: 10 μM compound, membranes from CHO-C4 cells expressing recombinant human NPY Y2 receptors, read-out: [%] inhibiton at 10 μM

Structure (SMILES)	inhibition at 10 µM
CCC(CC)C(=O)Nc1ccc(CCN2C(=O)C(c3ccccc3)(c3ccccc3)N=C2C)cc1 [Compound 4, 2-Ethyl-N-{4-[2-(2-methyl-5-oxo-4,4-diphenyl-4,5-dihydro-imidazol-1-yl)ethyl]-phenyl}-butyramide]	46%
CC1=NC(c2ccccc2)(c2ccccc2)C(=O)N1CCc1ccc(NC(=O)CC(C)C)cc1 [Compound 5, 3-Methyl-N-{4-[2-(2-methyl-5-oxo-4,4-diphenyl-4,5-dihydro-imidazol-1-yl)-ethyl]-phenyl}-butyramide]	35%
CCCC1(c2ccccc2)N=C(C)N(CC(=O)c2ccc(NC(=O)C3CCOC3)cc2F)C1=O (stereo not shown) [Compound 15, Tetrahydro-furan-3-carboxylic acid {3-fluoro-4-[2-(2-methyl-5-oxo-4-phenyl-4-propyl-4,5-dihydro-imidazol-1yl)-acetyl]-phenyl}-amide]	42%
CCCC1(c2ccc(F)cc2)N=C(C)N(CC(=O)c2ccc(NC(=O)C3CCOC3)cc2)C1=O (stereo not shown) [Compound 16, Tetrahydro-furan-3-carboxylic acid (4-{2-[4-(4-fluoro-phenyl)-2-methyl-5-oxo-4-propyl-4,5-dihydro-imidazol-1-yl]-acetyl}-phenyl)-amide]	28%
CC1=NC(c2ccccc2)(c2ccccc2)C(=O)N1CC(=O)c1ccc(NC(=O)c2ccccc2F)cc1 [Compound 21, 2-Fluoro-N-{4-[2-(2-methyl-5-oxo-4,4-diphenyl-4,5-dihydro-imidazol-1-yl)-acetyl]-phenyl}-benzamide]	61%
CC1=NC(c2ccccc2)(c2ccccc2)C(=O)N1CC(=O)c1ccc(NC(=O)Cc2ccccc2C)cc1 [Compound 22, N-{4-[2-(2-Methyl-5-oxo-4,4-diphenyl-4,5-dihydro-imidazol-1-yl)-acetyl]-phenyl}-2-o-tolyl-acetamide]	55%
COc1ccccc1C(=O)Nc1ccc(C(=O)CN2C(=O)C(c3ccccc3)(c3ccccc3)N=C2C)cc1 [Compound 23, 2-Methoxy-N-{4-[2-(2-methyl-5-oxo-4,4-diphenyl-4,5-dihydro-imidazol-1-yl)-acetyl]-phenyl}-benzamide]	46%
CC1=NC(c2ccccc2)(c2ccccc2)C(=O)N1CC(=O)c1ccc(NC(=O)Nc2c(C)noc2C)cc1 [Compound 27, 1-(3,5-Dimethyl-isoxazol-4-yl)-3-{4-[2-(2-methyl-5-oxo-4,4-diphenyl-4,5-dihydro-imidazol-1-yl)-acetyl]-phenyl}-urea]	100%
CCC(CC)C(=O)Nc1ccc(C(=O)CN2C(=O)C(c3ccccc3)(c3ccccc3)N=C2C)c(F)c1 [Compound 33, 2-Ethyl-N-{3-fluoro-4-[2-(2-methyl-5-oxo-4,4-diphenyl-4,5-dihydro-imidazol-1-yl)-acetyl]-phenyl}-butyramide]	60%
CCC(CC)C(=O)Nc1ccc(C(=O)CN2C(=O)C(c3ccccc3)(c3ccccc3)N=C2C)cc1 [Compound 34, 2-Ethyl-N-{4-[2-(2-methyl-5-oxo-4,4-diphenyl-4,5-dihydro-imidazol-1-yl)-acetyl]-phenyl}-butyramide]	65%

System: rats
Experiment: not given
Conditions: icv administration (Thorsell et al. Neurosci. Lett. 2002); cited from earlier work

Structure (SMILES)	ethanol self-administration
N=C(N)NCCC[C@H](NC(=O)CC1(CC(=O)N2CCN(C3c4ccccc4NC(=O)c4ccccc43)CC2)CCCC1)C(=O)NCCn1c(=O)n(-c2ccccc2)n(-c2ccccc2)c1=O (stereo partly shown) [BIIE0246]	dose dependently reduced ethanol self-administration
